Data as given in publication PMC7563863, “Quantification of Boron Compound Concentration for BNCT Using Positron Emission Tomography” (Cells, 2020).

How the values were obtained:
thyroid gland = test: [^18F]FDG PET/CT of the thyroid gland; type: in vivo, rat
Procedure: PET imaging was carried out in a Mosaic microPET scanner (Philips, Andover, MA, USA) followed by a CT scan in NanoCT (Bioscan/Mediso, Budapest, Hungary). Briefly, animals were anesthetized with isoflurane. A catheter was placed in the tail vein. A radiotracer (41 MBq) was injected with a maximum limit of 5 mL/kg in a bolus injection. In dynamic studies, this was done already in the PET scanner on a heated animal bed (Équipement Vétérinaire MINERVE, Esternay, France). For static studies, animals were awakened and let up for 45-min radiotracer uptake. Then, the animal was anesthetized again and placed in the heated bed of the PET scanner. The dynamic scans were of 90 min centered in the thyroids; the static ones were three beds of 10 cm longitudinal lengths starting from the head towards the tail. Each bed position was scanned for 15 min. CT scans were acquired in 45 kVp with 177 µA at 500 ms exposition and 240 projections per rotation.
PET images were reconstructed using an iterative method with decay, scatter, and random corrections without attenuation correction. […] CT images were reconstructed using the filtered back-projection method with an exact cone-beam and with a Shepp Logan 98% filter, giving a 0.2 mm uniform pixel size. […]

NIS = tested on: NIS; parameters: method as in PMID 21085047; settings: cited from earlier work
[1] = Estimated concentration in the blood after injection; type: in vivo; settings: rat
Procedure: The initial concentration of NaBF4 in the blood after injection of 110 mg/kg in the rat is about 16 mM, but as it can be seen from Figure 3, it is expected to drop fast to about 25% at 90 min—that is, to 4 mM. BPA is injected at doses of 500 mg/kg, which in rats, results in an initial concentration in the blood of 37 mM. The transporter of BPA is L-type amino acid transporter (LAT1), which for the most similar compound, phenylalanine has an IC50 of about 60 µM [20]. This is a […] of magnitude higher concentration in the blood for phenylalanine, and BPA still allows reaching therapeutic boron concentrations in the tumor.

[2] = Calculation of boron concentration in thyroid from PET activity concentration and production data; type: in vivo, rat
Source text: As injection solution of the [^18F]NaBF4 tracer contains the majority of unlabeled NaBF4; from the NaBF4 molar concentration in the synthesis solution, we could know the labeled to unlabeled tracer compound concentration ratio at the beginning of the PET study. […] The boron concentration is known only with the spatial resolution of the PET image, which in the Mosaic scanner case is about 2.3 mm. The microscopic details of the boron concentration were inferred from NIS immunofluorescence, assuming that the BF4^− concentration is only significant in NIS-containing cells.
Briefly, at the radiotracer production stage, the mass of NaBF4, Milli-Q water, and activity and volume of the [^18F]F^- Milli-Q water solution arriving from the cyclotron are known. Correcting for ^18F decay during the production and time needed for injection, with the known volume and activity of the produced and injected [^18F]NaBF4 tracer, we can calculate the amount of NaBF4 left from the production stage in the tissue from the activity concentration expressed initially as maximum local value of standard uptake value (SUVmax), then recalculated to kBq/mL and, then, to the molar concentration of ^18F at the beginning of the PET study.
To calculate the boron concentration, we start from calculating the ^18F molar concentration in the product to be injected. At the end of synthesis (EOS, decay-corrected to PET study start), we received 4.3 GBq of [^18F]NaBF4 in 2 mL of saline. As the activity concentration A is A=N/τ , where N is the number of ^18F atoms and τ=t1/2/ln(2) , t1/2 of ^18F being 109.7 min expressed in seconds, and diluted in 25.9 mL of Milli-Q water, we obtained 33.9 nM of [^18F]NaBF4 at the EOS and 351 µM of unlabeled NaBF4. We can calculate the molar concentration in the hyperplasia maximum from the maximum of the curve in Figure 3: 2.3 MBq/mL. […] Dividing the calculated concentration of [^18F]NaBF4 36.8 pM by 9.7 × 10^−5, we receive, therefore, a 381 nM boron concentration, which is […] of the fraction of required 2 mM ^10B concentration for BNCT treatment.

[3] = target: T1, sodium-iodine symporter (NIS) in thyroids (Rattus norvegicus, UniProt Q63008); test: Dynamic [^18F]NaBF4 PET/CT of the hyperplastic thyroid, time-activity curve; type: in vivo
T1 construct: It was injected into the tail veins of rats; from tissue; host or cells: thyroid (hyperplastic, perchlorate-treated) of living Wistar rats
T1 sequence (Q63008 1-618): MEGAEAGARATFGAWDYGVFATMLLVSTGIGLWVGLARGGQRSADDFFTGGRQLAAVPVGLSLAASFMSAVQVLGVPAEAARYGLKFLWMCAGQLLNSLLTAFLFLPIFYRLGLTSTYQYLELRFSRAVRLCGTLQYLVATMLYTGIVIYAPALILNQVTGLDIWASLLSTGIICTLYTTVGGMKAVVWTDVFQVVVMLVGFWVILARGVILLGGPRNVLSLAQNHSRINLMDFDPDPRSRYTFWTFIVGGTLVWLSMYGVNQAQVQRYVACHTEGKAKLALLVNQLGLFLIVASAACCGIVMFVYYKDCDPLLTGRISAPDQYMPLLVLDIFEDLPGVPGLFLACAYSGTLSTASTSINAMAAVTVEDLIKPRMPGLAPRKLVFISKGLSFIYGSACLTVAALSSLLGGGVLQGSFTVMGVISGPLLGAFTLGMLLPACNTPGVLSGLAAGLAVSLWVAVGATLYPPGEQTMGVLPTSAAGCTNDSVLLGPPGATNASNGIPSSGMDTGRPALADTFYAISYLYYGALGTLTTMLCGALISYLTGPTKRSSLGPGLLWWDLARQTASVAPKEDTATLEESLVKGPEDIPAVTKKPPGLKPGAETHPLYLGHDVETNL
Procedure: Female Wistar rats, aged 16–17 weeks old and weighing 200–220 g at the study starting moment, were kept in pathogen-free cages at the animal facilities of the School of Medicine (University of Seville, Seville, Spain) under controlled laboratory conditions (temperature 20 ± 2 °C, humidity 40–50%, lighting regimen of 12 light/12 dark hours). Animals were fed a normal laboratory diet (Teklad diet, Envigo, Cambridgeshire, UK) and fresh tap water ad libitum. The study was approved by the Ethical Committee of the Faculty of Medicine, University of Seville. Animal handling was conducted following the Guide for the Care and Use of Laboratory Animals. Rats were divided into two equal groups: the control group and the treated group. Animals from the treated group received 1% potassium perchlorate (w/v) in the drinking water, ad libitum, for […]. All experiments were carried with the approval of the ethics committee of the University of Seville.
PET imaging was carried out in a Mosaic microPET scanner (Philips, Andover, MA, USA) followed by a CT scan in NanoCT (Bioscan/Mediso, Budapest, Hungary). Briefly, animals were anesthetized with isoflurane. A catheter was placed in the tail vein. A radiotracer (41 MBq) was injected with a maximum limit of 5 mL/kg in a bolus injection. […]

[4] = target: T1, sodium-iodine symporter (NIS) in thyroids; test: Two-tissue compartment kinetic modeling of the tracer in the thyroid VOI (PMOD PKIN); type: in vivo; settings: two-tissue compartment model, hyperplastic thyroid
Source text: The kinetic modeling of the tracer in VOIs was done using two tissue compartment models shown in Equation (1). Cp is the activity concentration of the tracer in the plasma, C1 and C2 are concentrations in two compartments, k are the kinetic constants, and t is time. The kinetic modeling was done in the PMOD module PKIN using full blood as the input function, with linear interpolation between experimental points taken from the dynamic image of the left ventricle of the heart.
(1) dC2(t)/dt=k3C1(t)−k4C2(t)dC1(t)/dt=K1Cp(t)−(k2 + k3)C1(t) + k4C2(t)

[5] = target: T1, sodium-iodine symporter (NIS) in thyroids; parameters: method as in PMID 20577737; settings: cited from earlier work
[6] = tested on: L-type amino acid transporter (LAT1); parameters: method as in PMID 30048132; settings: cited from earlier work

OC[C@H]1OC(O)[C@H]([18F])[C@@H](O)[C@@H]1O (stereo partly drawn) [[^18F]FDG, [^18F]fluorodeoxyglucose]
uptake in control and hyperplastic thyroid (thyroid gland; control thyroid and thyroid with hyperplasia): neither the control nor thyroid with hyperplasia show an abnormal uptake | SUVmax in thyroid tumor (thyroid gland; thyroid tumor): two

F[B-](F)(F)F.[Na+] [NaBF4]
IC50 (NIS): 1600 nM | concentration in the blood at 90 min ([1]; 110 mg/kg, expected): 4 mM | concentration in the blood at 90 min as fraction of initial ([1]; expected from Figure 3 blood curve): about 25% | fraction of the required 2 mM ^10B concentration reached ([2]; 381 nM boron in hyperplastic thyroid): 19 × 10^−5 | boron concentration in thyroid with hyperplasia ([2]; at peak, after 53 nmol (21 µg/kg) NaBF4 injected): 381 nM

F[B-](F)(F)F.[Na+] [[^18F]NaBF4]
capture in bones ([3]; PET): no capture in bones | peak activity concentration in thyroid ([3]; hyperplastic thyroid, about 17 min after injection): 2.3 MBq/mL | Flux [4]: 0.28 | K1 [4]: 1.89 | Kl/k2 [4]: 3.60 | Vs (distribution volume of the specific binding) [4]: 3.96 | Vt (distribution volume) [4]: 7.56 | k2 [4]: 0.52 | k3 [4]: 0.09 | k3/k4 (nondisplaceable binding potential, BPND) [4]: 1.1 | k4 [4]: 0.08 | stability in vivo [5]: stable in vivo | molar concentration of [^18F]NaBF4 in thyroid at peak ([2]; hyperplasia maximum, from 2.3 MBq/mL): 36.8 pM

N[C@@H](Cc1ccccc1)C(=O)O [phenylalanine]
IC50 [6]: ~60 µM
